{
  "source": "PubChem BioAssay AID264",
  "about": "(DTP/NCI, 2004)",
  "system": "nude mice, LX-1 lung xenograft intrarenal, tumor weight T/C",
  "test": "NCI In Vivo Anticancer Drug Screen. Data for tumor model Human Lung LX-1 Xenograft (intrarenal inoculation) in NU/NU Swiss (nude) mice",
  "conditions": "endpoint: mean tumor weight change, higher = larger tumour",
  "outline": "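Compound-treated mice carrying transplanted tumors were compared with vehicle-treated controls. Tumor size was the measured end point, and the value is the treated-group measurement divided by the control-group measurement (T/C).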",
  "key": {"[1]": {"conditions": "dose: 75.0 mg/kg/injection, schedule: Q04DX003 (sc), vehicle: saline with Tween-80"}, "[2]": {"conditions": "dose: 300.0 mg/kg/injection, schedule: Q04DX003 (sc), vehicle: saline with Tween-80"}, "[3]": {"conditions": "dose: 600.0 mg/kg/injection, schedule: Q04DX003 (sc), vehicle: saline with Tween-80"}, "[4]": {"conditions": "dose: 1200.0 mg/kg/injection, schedule: Q04DX003 (sc), vehicle: saline with Tween-80"}},
  "note": "Where “and” joins values, the source holds several entries; their conditions need not be identical. Identical values can stand only once. Records with an inconclusive call do not appear.",
  "data": [
    {"smiles": "CN(CCN(C)C(=O)CCOS(C)(=O)=O)C(=O)CCOS(C)(=O)=O", "values": [
      {"measurement": "T/C", "setting": "dose: 150.0 mg/kg/injection, schedule: Q04DX003 (sc), vehicle: saline", "result": "58 % of control"},
      {"measurement": "T/C", "setting": "dose: 300.0 mg/kg/injection, schedule: Q04DX003 (sc), vehicle: saline", "result": "27 % of control"}
    ]},
    {"smiles": "Cc1cc2c(C(C)C)c(O)c(O)c(C=O)c2c(O)c1-c1c(C)cc2c(C(C)C)c(O)c(O)c(C=O)c2c1O", "values": [
      {"measurement": "T/C", "setting": "dose: 37.5 mg/kg/injection, schedule: Q04DX003 (sc), vehicle: saline with Tween-80", "result": "85 % of control"},
      {"measurement": "T/C", "setting": "[1]", "result": "75 % of control"}
    ]},
    {"smiles": "Nc1ccc2nc3ccc(N)cc3[n+](-c3ccccc3)c2c1", "values": [
      {"measurement": "T/C", "setting": "dose: 36.0 mg/kg/injection, schedule: Q04DX003 (sc), vehicle: saline", "result": "110 % of control"},
      {"measurement": "T/C", "setting": "dose: 72.0 mg/kg/injection, schedule: Q04DX003 (sc), vehicle: saline", "result": "70 % of control"}
    ]},
    {"smiles": "CCCC(=O)Nc1ncnc2c1ncn2C1OC2COP(=O)(O)OC2C1OC(=O)CCC", "note": "(stereo unspecified)", "values": [
      {"measurement": "T/C", "setting": "dose: 100.0 mg/kg/injection, schedule: Q01DX010 (sc), vehicle: saline", "result": "122 % of control"},
      {"measurement": "T/C", "setting": "dose: 200.0 mg/kg/injection, schedule: Q01DX010 (sc), vehicle: saline", "result": "92 % of control"},
      {"measurement": "T/C", "setting": "dose: 400.0 mg/kg/injection, schedule: Q01DX010 (sc), vehicle: saline", "result": "81 % of control"}
    ]},
    {"smiles": "CC(C)NC(=O)N(CCCCBr)N=O", "values": [
      {"measurement": "T/C", "setting": "dose: 75.0 mg/kg/injection, schedule: Q04DX003 (sc), vehicle: Klucel (hydroxypropylcellulose) (HPC)", "result": "95 % of control"},
      {"measurement": "T/C", "setting": "dose: 150.0 mg/kg/injection, schedule: Q04DX003 (sc), vehicle: Klucel (hydroxypropylcellulose) (HPC)", "result": "52 % of control"},
      {"measurement": "T/C", "setting": "dose: 300.0 mg/kg/injection, schedule: Q04DX003 (sc), vehicle: Klucel (hydroxypropylcellulose) (HPC)", "result": "44 % of control"}
    ]},
    {"smiles": "C/C=C/C=C/c1cc2cc3c(c(O)c2c(=O)[nH]1)C1(CC3)C(O)=c2c(=O)c3c(=O)cc(OC)c(=O)c=3c(=O)c2=C1O", "note": "(stereo unspecified)", "values": [
      {"measurement": "T/C", "setting": "dose: 0.5 mg/kg/injection, schedule: Q01DX010 (sc), vehicle: DMSO", "result": "221 % of control"},
      {"measurement": "T/C", "setting": "dose: 1.0 mg/kg/injection, schedule: Q01DX010 (sc), vehicle: DMSO", "result": "162 % of control"},
      {"measurement": "T/C", "setting": "dose: 2.0 mg/kg/injection, schedule: Q01DX010 (sc), vehicle: DMSO", "result": "92 % of control and 104 % of control"},
      {"measurement": "T/C", "setting": "dose: 4.0 mg/kg/injection, schedule: Q01DX010 (sc), vehicle: DMSO", "result": "103 % of control and 111 % of control"},
      {"measurement": "T/C", "setting": "dose: 8.0 mg/kg/injection, schedule: Q01DX010 (sc), vehicle: DMSO", "result": "106 % of control"},
      {"measurement": "T/C", "setting": "dose: 16.0 mg/kg/injection, schedule: Q01DX010 (sc), vehicle: DMSO", "result": "86 % of control"}
    ]},
    {"smiles": "COC(=Nc1ccccc1)SSC(C)C", "values": [
      {"measurement": "T/C", "setting": "[2]", "result": "120 % of control"},
      {"measurement": "T/C", "setting": "[3]", "result": "94 % of control"},
      {"measurement": "T/C", "setting": "[4]", "result": "107 % of control"}
    ]},
    {"smiles": "CC(=O)OC(C)C1C2=C(C(=O)CC1(C)O)C(=O)c1c(ccc(-c3ccc4c(c3O)C(=O)C3=C(C4=O)C(C(C)OC(C)=O)C(C)(O)CC3=O)c1O)C2=O", "note": "(stereo unspecified)", "values": [
      {"measurement": "T/C", "setting": "dose: 3.75 mg/kg/injection, schedule: Q04DX003 (sc), vehicle: saline with Tween-80", "result": "45 % of control"},
      {"measurement": "T/C", "setting": "dose: 7.5 mg/kg/injection, schedule: Q04DX003 (sc), vehicle: saline with Tween-80", "result": "86 % of control"},
      {"measurement": "T/C", "setting": "dose: 15.0 mg/kg/injection, schedule: Q04DX003 (sc), vehicle: saline with Tween-80", "result": "87 % of control"},
      {"measurement": "T/C", "setting": "dose: 30.0 mg/kg/injection, schedule: Q04DX003 (sc), vehicle: saline with Tween-80", "result": "62 % of control and 78 % of control"}
    ]},
    {"smiles": "CCOC(=O)C(C)(C)Oc1ccc(Cl)cc1", "values": [
      {"measurement": "T/C", "setting": "[2]", "result": "73 % of control"},
      {"measurement": "T/C", "setting": "[3]", "result": "97 % of control"},
      {"measurement": "T/C", "setting": "[4]", "result": "81 % of control"}
    ]},
    {"smiles": "CC1(C)OC1CS(=O)c1ccccc1", "note": "(stereo unspecified)", "values": [
      {"measurement": "T/C", "setting": "[3]", "result": "121 % of control"},
      {"measurement": "T/C", "setting": "[4]", "result": "89 % of control"}
    ]},
    {"smiles": "COC1=C(OC)C(=O)C(Sc2ccc3ccccc3c2)=CC1=O", "values": [
      {"measurement": "T/C", "setting": "[1]", "result": "85 % of control"},
      {"measurement": "T/C", "setting": "dose: 150.0 mg/kg/injection, schedule: Q04DX003 (sc), vehicle: saline with Tween-80", "result": "93 % of control"},
      {"measurement": "T/C", "setting": "dose: 200.0 mg/kg/injection, schedule: Q04DX003 (sc), vehicle: saline with Tween-80", "result": "115 % of control"},
      {"measurement": "T/C", "setting": "[2]", "result": "80 % of control"},
      {"measurement": "T/C", "setting": "dose: 400.0 mg/kg/injection, schedule: Q04DX003 (sc), vehicle: saline with Tween-80", "result": "104 % of control"},
      {"measurement": "T/C", "setting": "dose: 800.0 mg/kg/injection, schedule: Q04DX003 (sc), vehicle: saline with Tween-80", "result": "92 % of control"},
      {"measurement": "T/C", "setting": "dose: 1600.0 mg/kg/injection, schedule: Q04DX003 (sc), vehicle: saline with Tween-80", "result": "79 % of control"}
    ]},
    {"smiles": "COC(=O)NC1C(C)OC(OC2C/C=C(/C)C3C=CC4C(OC5CC(OC6CCC(OC7CC(O)C(OC8CCC(O)C(C)O8)C(C)O7)C(C)O6)C(OC(C)=O)C(C)O5)C(C)CC(C)C4C3(C)/C(O)=C3/C(=O)OC4(CC(C=O)=CC(O)C4/C=C\\2C)C3=O)CC1(C)[N+](=O)[O-]", "note": "(stereo unspecified)", "values": [
      {"measurement": "T/C", "setting": "dose: 12.5 mg/kg/injection, schedule: Q04DX003 (sc), vehicle: other", "result": "63 % of control"},
      {"measurement": "T/C", "setting": "dose: 25.0 mg/kg/injection, schedule: Q04DX003 (sc), vehicle: other", "result": "75 % of control"},
      {"measurement": "T/C", "setting": "dose: 50.0 mg/kg/injection, schedule: Q04DX003 (sc), vehicle: other", "result": "100 % of control"},
      {"measurement": "T/C", "setting": "dose: 100.0 mg/kg/injection, schedule: Q04DX003 (sc), vehicle: other", "result": "93 % of control"}
    ]}
  ]
}
